Laboratory results: patent publication US9428536B2, “Immunostimulatory G, U-containing oligoribonucleotides” (Zoetis Belgium SA, priority 2002, dated 2016)

Tested on: wild type murine macrophages
Assay: Wild type murine macrophages in the presence of IFN-γ, IL-12 p40 ELISA
Type: cell-based, mouse
Settings: FIG. 6 Panel A, 12 hours, RNA with DOTAP
Experimental: The following murine cells were isolated and incubated with various RNAs and other known TLR ligands in order to assess species-, cell type-, and signaling pathway-specificity: wild type macrophages in the presence of IFN-γ; MyD88-deficient macrophages in the presence of IFN-γ; J774 (mouse macrophage cell line); and RAW 264.7 (mouse macrophage cell line, e.g., ATCC TIB-71). Murine bone macrophages were generated from wild type or MyD88-deficient C57BL/6 mice by culturing bone marrow cells with 50 ng/ml M-CSF for 5 days. Cells were seeded at 25,000 cells/well and treated with 20 ng/ml IFN-γ for 16 hours. The murine macrophage cell lines RAW and J774 were seeded at 10,000 cells/well.
The following test and control agents were examined: R-848 (2 μg/ml), ODN 1668 (CpG DNA; 5′-[…]-3′; SEQ ID NO:7); LPS (1 μg/ml); poly IC (50 μg/ml); Pam3Cys (5 μg/ml); Ionomycin/TPA; the following RNA molecules, each with (“+Lipo”) and without DOTAP (10 μg/200 μl culture well): GUGUUUAC alone (RNA1); GUAGGCAC alone (RNA2); GUGUUUAC in combination with GUAGGCAC (RNA1/2); […] (RNA6; SEQ ID NO:8); […] (RNA9; SEQ ID NO:9); and the following DNA molecules, corresponding to RNA1, RNA2, and RNA1/2: GTGTTTAC alone (DNA1); GTAGGCAC alone (DNA2); and GTGTTTAC in combination with GTAGGCAC (DNA1/2). These RNA and DNA oligonucleotides each contained a phosphorothioate linkage between the penultimate and 3′ terminal nucleoside. RNA6 and RNA9 each contained in addition a phosphorothioate linkage between the penultimate and 5′ terminal nucleoside. RNA6 corresponds to a ribosomal RNA stem loop derived from Listeria monocytogenes. RNA9 corresponds to a stem loop derived from human immunodeficiency virus (HIV, an RNA retrovirus). The cells were cultured for 12 hours and supernatants were harvested. Murine IL-12 p40, IL-6, and TNF-α were measured by ELISA using matched antibody pairs from BD-Pharmingen according to the manufacturer's protocol.

CCOCc1nc2c(N)nc3ccccc3c2n1CC(C)(C)O [R-848, 4-amino-α,α-dimethyl-2-ethoxymethyl-1H-imidazo[4,5-c]quinoline-1-ethanol, reference compound]
IL-12 p40 secretion by wild type murine macrophages: significant amounts
